In patent publication US4542021A, “Antitumor compositions for non-injection administration” (Yamasa Shoyu Kabushiki Kaisha, priority 1978, dated 1985):

Legend:
[1] = in combination with a cytidinedeaminase inhibitor such as tetrahydrouridine; cited from earlier work
[2] = Acute toxicity test, oral (Test Example 4); parameters: species or system ICR-JCL mice; details: mouse, in vivo, male mice, observed 7 days, reliability limit 95% in parentheses
Method: The C18-ara-CMP ester was dissolved in saline containing 0.5% carboxymethylcellulose, and given orally to ICR-JCL mice (males, 24 to 26 g) at a dose rate of 0.2 ml per 10 g of each mouse's body weight. […] The LD50 value was;

L1210 leukemic cells [3] = assay: Experimental tumor proliferation model in the lymph nodes, once a day for 6 days; assay type: in vivo, BDF1 mice
Method: (§1) L1210 leukemic cells (1×10^6 cells/0.05 ml) were implanted to the right inner-thigh hypoderms of BDF1 mice (males, 18 to 22 g). From one day after the transplantation, the compounds to be tested were administered intraperitoneally or orally to the mice once a day consecutively for 6 days. The compounds being tested were dissolved in a phosphate-buffered salt solution (PBS) containing 0.5% carboxymethylcellulose to a suitable concentration, and administered to the mice at a dose rate of 0.1 ml per 10 g of each mouse's body weight. The increases in life span (%ILS) were calculated similarly as in Test Example 1.

L1210 leukemia = assay: Therapeutic test on L1210 leukemia (oral, once a day); assay type: in vivo, BDF1 mice; details: Mus musculus, oral, read-out: % ILS (increase in life span)
Method: The L1210 leukemic cell suspension (1×10^5 cells/0.2 ml) was implanted intraperitoneally in BDF1 mice (males, 18 to 22 g, females, 16 to 20 g) (7 mice per group). From 24 hours after the implantation to the 5th day thereafter, the predetermined doses of the compounds to be tested were orally administered to the mice consecutively once a day. The compounds to be tested were dissolved or suspended in a phosphate-bufferedsalt solution (PBS) containing 0.5% carboxymethylcellulose, and given at a dose rate of 0.1 ml per 10 g of each mouse's body weight. To a control group, only the same solvent as used for the dissolution of the compounds to be tested was administered in the same way. The mean survival times (MST) for each group were calculated, and the corresponding increase in life span (%ILS) was obtained in accordance with the following formula, the results of which are shown in Table 1. [formula]

[4] = Acute toxicity test, intraperitoneal (Test Example 4); parameters: species or system ICR-JCL mice; details: mouse, in vivo; ip, male mice, 7th day; reliability limit 95% in parentheses
Method: The C18-ara-CMP ester dissolved in saline was administered intraperitoneally to ICR-JCL mice (males, 24 to 26 g) at a dose rate of 0.2 ml per 10 g of each mouse's body weight. The LD50 value obtained on the 7th day was;

B16 melanoma = assay: Effectiveness against B16 melanoma (oral, 3 times a week); assay type: in vivo, BDF1 mice; parameters: Mean survival time (MST ± SE): unit not given here
Method: The B16 melanoma cells (1×10^6 cells) were implanted to the right side-abdominal hypoderms of BDF1 mice (male, 18 to 22 g). From the 13th day after the implantation to death the compounds to be tested were administered orally 3 times a week. The compounds to be tested were dissolved in a phosphate-buffered salt solution (PBS) containing 0.5% carboxymethyl-cellulose to a suitable concentration, and given to the mice at a dose rate of 0.1 ml per 10 g of each mouse's body weight. The increases in life span (%ILS) were calculated in accordance with the same formula as described in Test Example 1.

L1210 leukemic cells [5] = assay: Experimental tumor proliferation model in the lymph nodes, single administration on sixth day; assay type: in vivo, BDF1 mice; details: po, once on sixth day
Method: as §1
Furthermore, in a similar manner, each of the test compounds was administered only once on the sixth day after implantation.

[6] = Acute toxicity test, oral (Test Example 5); parameters: species or system ICR-JCL mice; details: mouse, in vivo, neutralized ester, male mice, 14th day
Method: An ara-CMP ester was neutralized and dissolved in saline containing 0.5% of carboxymethylcellulose, and the resulting solution was orally administered to ICR-JCL mice (males, 24 to 26 g) in a dose of 0.2 ml per 10 g of each mouse's body weight.

Question: For `Nc1ccn([C@@H]2O[C@H](CO)[C@@H](O)[C@@H]2O)c(=O)n1` [ara-C, 1-β-D-arabinofuranosyl cytosine], which “effectiveness of oral administration” value [1] is on record?
Answer: The value was “effective in combination with a cytidinedeaminase inhibitor such as tetrahydrouridine”.

Question: Which results are given for `CCCCCCCCCCCCCCCCCCOP(=O)(O)OC[C@H]1O[C@@H](n2ccc(N)nc2=O)[C@@H](O)[C@@H]1O` [C18-ara-CMP ester, ara-CMP-stearyl ester]?
Answer: LD50 at 168 h [2]: 1400 mg/kg; Increase in life span (% ILS) (L1210 leukemic cells [3]; ip, 25 mg/kg/day): 152%; Mean survival time (MST ± SE) (L1210 leukemic cells [3]; ip, 25 mg/kg/day): 17.4 ± 0.40; Increase in life span (% ILS) (L1210 leukemic cells [3]; ip, 50 mg/kg/day): 193%; Mean survival time (MST ± SE) (L1210 leukemic cells [3]; ip, 50 mg/kg/day): 20.2 ± 0.53; Increase in life span (% ILS) (L1210 leukemic cells [3]; po, 50 mg/kg/day): 165%; Mean survival time (MST ± SE) (L1210 leukemic cells [3]; po, 50 mg/kg/day): 18.3 ± 0.62; Increase in life span (% ILS) (L1210 leukemic cells [3]; po, 100 mg/kg/day): 188%; Mean survival time (MST ± SE) (L1210 leukemic cells [3]; po, 100 mg/kg/day): 19.9 ± 0.48; ILS at 100 mg/kg/day (L1210 leukemia; L1210, 720 h, 100 mg/kg/day, > means some mice survived the test period (30 days)): > 200%; ILS at 200 mg/kg/day (L1210 leukemia; L1210, 720 h, 200 mg/kg/day, > means some mice survived the test period (30 days)): 53%; ILS at 400 mg/kg/day (L1210 leukemia; L1210, 720 h, 400 mg/kg/day, > means some mice survived the test period (30 days)): -7%; ILS at 6.25 mg/kg/day (L1210 leukemia; L1210, 6.25 mg/kg/day): 46%; ILS at 12.5 mg/kg/day (L1210 leukemia; L1210, 12.5 mg/kg/day): 52%; ILS at 25 mg/kg/day (L1210 leukemia; L1210, 25 mg/kg/day): 69%; ILS at 50 mg/kg/day (L1210 leukemia; L1210, 50 mg/kg/day): 114%; LD50 at 168 h [4]: 137 mg/kg; Mean survival time (MST ± SE) (B16 melanoma; 50 mg/kg): 30.0 ± 1.30; Increase in life span (% ILS) (B16 melanoma; 50 mg/kg, * level of significance at 0.05% or lower): 36%; Increase in life span (% ILS) (B16 melanoma; 100 mg/kg): 17%; Mean survival time (MST ± SE) (B16 melanoma; 100 mg/kg): 25.8 ± 1.98; Increase in life span (% ILS) (B16 melanoma; 200 mg/kg): 22%; Mean survival time (MST ± SE) (B16 melanoma; 200 mg/kg): 26.8 ± 2.20; Increase in life span (% ILS) (L1210 leukemic cells [5]; 250 mg/kg): 92%; Mean survival time (MST ± SE) (L1210 leukemic cells [5]; 250 mg/kg): 14.0 ± 0.53; Increase in life span (% ILS) (L1210 leukemic cells [5]; 500 mg/kg): 137%; Mean survival time (MST ± SE) (L1210 leukemic cells [5]; 500 mg/kg): 17.3 ± 0.49; LD50 at 336 h [6]: 1050 mg/kg
